According to ChEMBL document CHEMBL5360672, “Identification of Novel Dual-Target Estrogen Receptor α Degraders with Tubulin Inhibitory Activity for the Treatment of Endocrine-Resistant Breast Cancer” (J Med Chem, 2023):
Activity calls are given as the source filed them. The calls are words filed in the database; no cut-off is given here.

Experiments:
[1] = system: Mus musculus; test: In vivo induction of ERalpha degradation in BALB/c nude mouse xenografted with human tamoxifen-resistant LCC2 cells assessed as decrease in ERalpha expression in tumor at 2 mg/kg, ip administered every other day for 20 days by Western blot analysis; type: functional, organism-based; settings: time 20.0 day
[2] = system: MDA-MB-231; test: Antiproliferative activity against ERalpha negative human MDA-MB-231 cells assessed as inhibition of cell proliferation incubated for 72 hrs by CCK8 assay; type: functional, cell-based; settings: MDA-MB-231, 72 h
[3] = system: MCF7; test: Antitumor activity against human MCF7 cells xenografted in Balb/c nude mouse assessed as reduction in Ki67 positive cells at 2 to 4 mg/kg, ip administered every other day for 20 days by immunohistochemistry analysis; type: functional, organism-based; settings: dose 2-4 mg/kg, time 20.0 day
[4] = system: Tamoxifen-resistant LCC2 cell; test: Antitumor activity against human Tamoxifen-resistant LCC2 cells xenografted in Balb/c nude mouse assessed as reduction in Ki67 positive cells at 2 mg/kg, ip administered every other day for 20 days by immunohistochemistry analysis; type: functional, organism-based; settings: time 20.0 day
[5] = target: T1, Estrogen receptor (Homo sapiens) (UniProt P03372); test: Binding affinity to human ERalpha assessed as relative binding affinity incubated under vibration for 1 min followed by 2 hrs incubation under dark condition by fluorescence polarization assay relative to estradiol; settings: time 121.0 min
T1 sequence (whole entry): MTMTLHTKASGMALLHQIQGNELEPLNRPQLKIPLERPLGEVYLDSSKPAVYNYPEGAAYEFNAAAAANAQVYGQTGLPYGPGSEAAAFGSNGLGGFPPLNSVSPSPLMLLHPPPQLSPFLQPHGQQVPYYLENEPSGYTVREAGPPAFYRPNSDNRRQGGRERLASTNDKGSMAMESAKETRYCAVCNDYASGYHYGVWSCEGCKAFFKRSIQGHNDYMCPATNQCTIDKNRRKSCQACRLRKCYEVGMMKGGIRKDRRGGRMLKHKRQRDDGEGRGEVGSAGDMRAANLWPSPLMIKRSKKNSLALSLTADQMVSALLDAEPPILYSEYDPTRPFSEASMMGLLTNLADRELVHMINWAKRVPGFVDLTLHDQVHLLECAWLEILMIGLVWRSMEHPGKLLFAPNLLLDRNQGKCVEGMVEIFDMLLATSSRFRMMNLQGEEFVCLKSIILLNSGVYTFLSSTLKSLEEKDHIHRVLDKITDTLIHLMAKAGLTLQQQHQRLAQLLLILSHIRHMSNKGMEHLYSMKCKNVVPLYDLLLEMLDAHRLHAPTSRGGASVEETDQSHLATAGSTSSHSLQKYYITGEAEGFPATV

[6] = target: T1, Estrogen receptor (Homo sapiens); test: Induction of ERalpha degradation in human MCF7 cells at 5 uM incubated for 24 hrs by Western blot analysis; type: cell-based
[7] = system: Estrogen receptor (Homo sapiens), P03372 [Y537S]; test: Induction of ERalpha degradation in human T47D cells harboring ERalpha Y537S mutant at 0.5 to 5 uM incubated for 24 hrs by Western blot analysis; type: cell-based; settings: dose 0.5-5 µM
[8] = system: T47D; test: Antiproliferative activity against human T47D cells harboring ERalpha Y537S mutant assessed as inhibition of cell proliferation incubated for 72 hrs by CCK8 assay; type: functional, cell-based
[9] = Toxicity in Balb/c nude mouse xenografted with human MCF7 cells assessed as effect on heart morphology at 2 to 4 mg/kg, ip administered every other day for 20 days by H&E staining based analysis; type: organism-based; settings: in vivo, 480 h, dose 2-4 mg/kg, time 20 day
[10] = target: T2, Tubulin (Homo sapiens) (UniProt P68371+Q9H4B7+P0DPH7+P68366+Q13509+Q71U36+P04350+Q3ZCM7+P07437+P68363+Q9BQE3+Q6PEY2+Q13885+Q9BVA1+Q9BUF5); test: Disruption of microtubule network in human LCC2 cells assessed as chaotic microtubule network at 4 uM incubated for 48 hrs by DAPI staining based confocal laser scanning microscopic analysis; type: cell-based
[11] = species: Homo sapiens; test: Selectivity ratio of relative binding affinity for human ERalpha to relative binding affinity to human ERbeta
[12] = Antitumor activity against human Tamoxifen-resistant LCC2 cells xenografted in Balb/c nude mouse assessed as tumor growth inhibition at 2 mg/kg, ip administered every other day for 20 days relative to control; type: functional; settings: Tamoxifen-resistant LCC2 cell, 480 h, time 20 day, read-out: TGI
[13] = system: MCF7; test: Induction of cell cycle arrest in human MCF7 cells assessed as increase in G2/M phase cells at 0 to 8 uM incubated for 48 hrs by flow cytometry analysis (reference value: 20.10%); type: functional; settings: dose 0-8 µM
[14] = target: T2, Tubulin (Homo sapiens); test: Disruption of microtubule network in human MCF7 cells assessed as ruptured microtubule network at 2 uM incubated for 48 hrs by DAPI staining based confocal laser scanning microscopic analysis; type: cell-based
[15] = Cytotoxicity against human MCF-10A cells assessed as inhibition of cell proliferation incubated for 72 hrs by CCK8 assay; type: toxicity, cell-based
[16] = system: MCF7; test: Antitumor activity against human MCF7 cells xenografted in Balb/c nude mouse assessed as tumor growth inhibition at 4 mg/kg, ip administered every other day for 20 days relative to control; type: functional; settings: MCF7, 480 h, time 20 day, read-out: TGI
[17] = system: MCF7; test: Antitumor activity against human MCF7 cells xenografted in Balb/c nude mouse assessed as tumor growth inhibition at 2 mg/kg, ip administered every other day for 20 days relative to control; type: functional; settings: MCF7, 480 h, time 20 day, read-out: TGI
[18] = target: T2, Tubulin (Homo sapiens); test: Disruption of microtubule network in human LCC2 cells assessed as ruptured microtubule network at 4 uM incubated for 48 hrs by DAPI staining based confocal laser scanning microscopic analysis; type: cell-based
[19] = target: T1, Estrogen receptor (Homo sapiens); test: Induction of ERalpha degradation in human MCF7 cells at 5 uM incubated for 24 hrs in the presence of MG-132 by Western blot analysis; type: cell-based
[20] = target: T1, Estrogen receptor (Homo sapiens); test: Induction of ERalpha degradation in human MCF7 cells at 5 uM incubated for 24 hrs by Western blot analysis relative to SeCN-OBHSA derivatives; type: cell-based
[21] = system: T47D; test: Antiproliferative activity against human T47D cells harboring ERalpha D538G mutant assessed as inhibition of cell proliferation incubated for 72 hrs by CCK8 assay; type: functional, cell-based
[22] = target: T1, Estrogen receptor (Homo sapiens); test: Induction of ERalpha degradation in human MCF7 cells incubated for 6 to 24 hrs by Western blot analysis; type: cell-based; settings: dose 0.5-5 µM, time 6-24 hrs
[23] = target: T2, Tubulin (Homo sapiens); test: Inhibition of tubulin polymerization (unknown origin) at 30 uM incubated for 60 mins by microplate reader analysis; type: protein-complex assay
[24] = Selectivity index, ratio of IC50 for cytotoxicity against human MCF-10A cells to IC50 for antiproliferative activity against human MCF7 cells; type: toxicity, cell-based; settings: MCF-10A cells and MCF7 cells, read-out: Ratio IC50
[25] = Toxicity in Balb/c nude mouse xenografted with human MCF7 cells assessed as effect on kidney morphology at 2 to 4 mg/kg, ip administered every other day for 20 days by H&E staining based analysis; type: organism-based; settings: in vivo, 480 h, dose 2-4 mg/kg, time 20 day
[26] = system: Estrogen receptor (Homo sapiens), P03372 [D538G]; test: Induction of ERalpha degradation in human T47D cells harboring ERalpha D538G mutant at 0.5 to 5 uM incubated for 24 hrs by Western blot analysis; type: cell-based; settings: dose 0.5-5 µM
[27] = system: T47D; test: Antiproliferative activity against ERalpha positive human T47D cells assessed as inhibition of cell proliferation incubated for 72 hrs by CCK8 assay; type: functional, cell-based

Estrogen receptor (Homo sapiens), P03372 [Y537S], sequence (P03372 whole entry Y537S): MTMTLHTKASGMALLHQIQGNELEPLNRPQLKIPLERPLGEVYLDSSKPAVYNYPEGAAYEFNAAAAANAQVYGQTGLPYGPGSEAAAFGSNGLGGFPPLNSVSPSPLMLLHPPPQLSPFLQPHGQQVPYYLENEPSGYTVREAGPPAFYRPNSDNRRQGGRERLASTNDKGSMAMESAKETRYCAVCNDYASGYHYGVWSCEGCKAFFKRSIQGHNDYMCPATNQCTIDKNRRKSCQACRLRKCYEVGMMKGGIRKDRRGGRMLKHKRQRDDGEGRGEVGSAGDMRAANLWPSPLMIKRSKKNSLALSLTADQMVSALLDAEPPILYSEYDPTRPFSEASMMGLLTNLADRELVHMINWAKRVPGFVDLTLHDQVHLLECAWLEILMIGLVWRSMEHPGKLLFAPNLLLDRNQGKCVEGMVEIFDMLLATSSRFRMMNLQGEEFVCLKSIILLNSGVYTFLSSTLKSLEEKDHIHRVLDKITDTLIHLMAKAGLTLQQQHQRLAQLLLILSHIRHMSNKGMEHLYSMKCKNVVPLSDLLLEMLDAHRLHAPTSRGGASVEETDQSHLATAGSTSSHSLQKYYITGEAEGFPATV
Estrogen receptor (Homo sapiens), P03372 [D538G], sequence (P03372 whole entry D538G): as the sequence (P03372 whole entry Y537S) above, with S537Y, D538G counted along it

Q: Which Activity [1] does the source give for `N#C[Se]CCCCCC(=O)Nc1ccc(C2=C(c3ccc(O)cc3)C3CC(S(=O)(=O)N(CC(F)(F)F)c4ccccc4F)C2O3)cc1` (configuration not stated) here?
A: Its Activity is “Active”.

Q: What about the IC50 [2] of the same compound?
A: The IC50 was 3.75 µM.

Q: What about the Activity [3] of the same compound?
A: Its Activity is “Active”.

Q: And the Activity [4]?
A: The Activity was “Active”.

Q: What about the RBA [5] of the same compound?
A: Its RBA is 8.57%.

Q: And the Activity [6]?
A: The Activity was “Active”.

Q: What about the Activity [7] of the same compound?
A: The Activity was “Active”.

Q: And the IC50 [8]?
A: The IC50 was 1.37 µM.

Q: What about the Activity [9] of the same compound?
A: The Activity was “Non-Toxic”.

Q: What about the Activity [10] of the same compound?
A: The Activity was “Active”.

Q: And the Selectivity ratio [11]?
A: The Selectivity ratio was 85.7.

Q: What about the inhibition in vivo at 2 mg/kg [12] of the same compound?
A: The inhibition in vivo at 2 mg/kg was 51.4%.

Q: What about the Activity [13] of the same compound?
A: Its Activity is 40.88%.

Q: What about the Activity [14] of the same compound?
A: Its Activity is “Active”.

Q: What about the IC50 at 72 h [15] of the same compound?
A: The IC50 at 72 h was 15.8 µM.

Q: And the inhibition in vivo at 4 mg/kg [16]?
A: Its inhibition in vivo at 4 mg/kg is 77.7%.

Q: And the inhibition in vivo at 2 mg/kg [17]?
A: Its inhibition in vivo at 2 mg/kg is 74.6%.

Q: What about the Activity [18] of the same compound?
A: The Activity was “Active”.

Q: And the Activity [19]?
A: The Activity was “inactive”.

Q: What about the Activity [20] of the same compound?
A: Its Activity is “Active”.

Q: And the IC50 [21]?
A: The IC50 was 1.67 µM.

Q: And the Activity [22]?
A: The Activity was “Dose-Dependent Effect”.

Q: What about the “tubulin polymerization inhibition (active/not active)” value [23] of the same compound?
A: Its value is “Active”.

Q: What about the selectivity ratio [24] of the same compound?
A: The selectivity ratio was 264.

Q: What about the Activity [25] of the same compound?
A: Its Activity is “Non-Toxic”.

Q: And the Activity [26]?
A: The Activity was “Active”.

Q: What about the IC50 [27] of the same compound?
A: The IC50 was 2.56 µM.
